Data set [1] is described as follows: MDCK-II assay (cell monolayer assay). Format: in vitro ADME. As to conditions: dog. As to the method: (§1) Further, with respect to the peptides synthesized in Examples 14, 15 and 17 and Comparative Examples 5,6 and 8, MDCK-II assay was conducted. For the MDCK-II assay, propranolol (CAS No: 318-98-9) was used as a positive control (“PC”) and Norfloxacin (CAS No: 70458-96-7) as a negative control (“NC”).
MDCK-II cells were seeded on Cell Culture Inserts (Falcon) at 5.04×10^4 cells/mL, and 5 days after seeding, cell monolayer assay (MDCK-II assay) was conducted. The peptide stock solution was prepared at 2 mM in DMSO solution, and diluted with HBSS containing 20 mM of HEPES (pH 7.5) to prepare a 2 μM peptide solution using as a solvent 0.1% DMSO/HBSS (+), as a donor solution. The acceptor solution was a 0.1% DMSO solution using as a solvent HBSS (+) containing 20 mM of HEPES (pH 7.5). […] The peptide concentration was analyzed by LC/MS. The experiment was conducted repeatedly three times. The permeability (Papp) was calculated in accordance with the following formula.
A: filter area (0.3 cm^2) VB: basolateral well volume (0.75 cm^3) t: incubation time (s) (2 hours=7200 s) C0: initial concentration in apical chamber (2 μM) CB (t): basolateral compound concentration at time t

A short description of data set [2]: PAMPA (Parallel Artificial Membrane Permeability Assay). Format: in vitro ADME. As to the method:
as §1
Permeability of the peptides was evaluated by PAMPA. In the PAMPA, 300 μL of a 5% DMSO-containing PBS was added to the respective wells of an accepter plate (MultiScreen 96-well transport receiver plate, manufactured by Merck), and 150 μL of a peptide solution (20 μM) dissolved in 5% DMSO/PBS was added to the respective wells of a donor plate (MultiScreen-IP filter plate, 0.45 μm, manufactured by Merck). A dodecane solution of 1% lecithin (from soybean) was subjected to ultrasonic treatment for 30 minutes before use, and 5 μL of the solution was applied to the membrane support (PVDF) of the respective wells of the donor plate. The donor plate was placed on the acceptor plate, and the plates were left to stand in an incubator at 25° C. for 18 hours. The peptide concentration was determined by LC/MS. The experiment was conducted repeatedly three times. The permeability (Pe) was calculated in accordance with the following formulae.
A: filter area (0.3 cm^2) VD: volume of donor well (0.15 cm^3) VA: volume of acceptor well (0.3 cm^3) t: incubation time (s) (18 hours=64800 s) CD (t): compound concentration in donor well at time t CA (t): compound concentration in acceptor well at time t
In general terms: In PAMPA a lipid-coated filter parts donor from acceptor wells.

Where [3] appears, read: peptide 20 μM in 5% DMSO/PBS, 1% lecithin in dodecane on PVDF, 25° C. for 18 hours, repeated three times, read-out: Pe.
Setting [4] is: MDCK-II monolayer, 2 μM peptide, apical side to basolateral side, 37° C., 5% CO2, 2 hours, repeated three times, read-out: Papp.

The values that follow come from US20220119440A1, “PEPTIDE AND METHOD FOR MANUFACTURING SAME” (AGC Inc., priority 2019, published 2022).

Where two headings read alike, the source gives them in different places. Peptide text beside a SMILES is read from it. * marks the point of attachment. NHBn = c1ccc(CN*)cc1 Some results are limits rather than exact numbers.

`CC(=O)N[C@@H](C)C(=O)N[C@@H](C)C(=O)NCc1ccccc1` [Comparative Example 5, Ac-L-Ala-L-Ala-NHBn, reference compound] (Ac-Ala-Ala-NHBn) registered a Papp A→B at 2 h, 2 μM in data set [1] (MDCK) of 1.23 ×10⁻⁶ cm/s. Compound `CC(=O)N[C@H](C(=O)N[C@@H](C)C(=O)N(C)C)C(C)C` [Comparative Example 7, Ac-L-Val-L-Ala-NMe2, reference compound] (Ac-Val-Ala-NMe2) had a Papp at 18 h, 20 μM in data set [2] of at most 0.003 ×10⁻⁶ cm/s.

Consider `CC(=O)NC(C(=O)N[C@@H](C)C(=O)N(C)C)C(C(F)(F)F)C(F)(F)F` (stereo partly drawn) [Example 16, Ac-D,L-Val (F6)-L-Ala-NMe2], for which the Papp at 18 h, 20 μM in data set [2] (setting [3]) stood at 0.04 ×10⁻⁶ cm/s.

As for `CC(=O)NC(C(=O)N[C@@H](Cc1ccccc1)C(=O)NCC(C)C)C(C(F)(F)F)C(F)(F)F` (stereo partly drawn) [Example 17, Ac-D,L-Val (F6)-L-Phe-iBu], the Papp at 18 h, 20 μM in data set [2] (setting [3]) was found to be 1.57 ×10⁻⁶ cm/s. The Papp A→B at 2 h, 2 μM in data set [1] (setting [4]) came out at 8.38 ×10⁻⁶ cm/s. `CC(=O)N[C@H](C(=O)N[C@@H](Cc1ccccc1)C(=O)NCC(C)C)C(C)C` [Comparative Example 8, Ac-L-Val-L-Phe-iBu, reference compound] showed a Papp at 18 h, 20 μM in data set [2] of 0.07 ×10⁻⁶ cm/s. This compound also gave a Papp A→B at 2 h, 2 μM in data set [1] (MDCK) of 7.12 ×10⁻⁶ cm/s. As for `CC(=O)NC(C(=O)N[C@@H](Cc1ccccc1)C(=O)NCC(C)C)C(F)(F)F` (stereo partly drawn) [Example 15, Ac-D,L-Ala (F3)-L-Phe-iBu], in data set [2] (setting [3]), the Papp at 18 h, 20 μM was determined as 0.19 ×10⁻⁶ cm/s. Moreover, the Papp A→B at 2 h, 2 μM in data set [1] (setting [4]) is 9.86 ×10⁻⁶ cm/s.

`CC(=O)NC(C(=O)N[C@@H](C)C(=O)NCc1ccccc1)C(F)(F)F` (stereo partly drawn) [Example 14, Ac-D,L-Ala (F3)-L-Ala-NHBn]: the Papp A→B at 2 h, 2 μM in data set [1] (setting [4]) came to 3.26 ×10⁻⁶ cm/s.
